ChEMBL document CHEMBL3997825, “Discovery of 2-oxopiperazine dengue inhibitors by scaffold morphing of a phenotypic high-throughput screening hit” (Bioorg Med Chem Lett, 2017)
Converted amounts (≈) assume the structure as drawn.

Tests used:
dengue virus type 4 [1] = test: Antiviral activity against DENV4 MY01-22713 infected in human A549 cells assessed as decrease in envelope protein production after 48 hrs by immunodetection method; format: functional, cell-based; details: MY01-22713, A549, 48 h
[2] = Cytotoxicity against human HepG2 cells; format: cell-based
dengue virus type 3 [3] = test: Antiviral activity against DENV3 MY05-34640 infected in human A549 cells assessed as decrease in envelope protein production after 48 hrs by immunodetection method; format: functional, cell-based; details: MY05-34640, A549, 48 h
dengue virus type 1 [4] = test: Antiviral activity against DENV1 MY97-10245 infected in human A549 cells assessed as decrease in envelope protein production after 48 hrs by immunodetection method; format: functional, cell-based; details: MY97-10245, A549, 48 h
dengue virus type 2 [5] = test: Antiviral activity against DENV2 MY97-10340 infected in human A549 cells assessed as decrease in envelope protein production after 48 hrs by immunodetection method; format: functional, cell-based; details: MY97-10340, A549, 48 h
dengue virus type 3 [6] = test: Antiviral activity against DENV3 H87 infected in BHK21 cells assessed as reduction in viral titer after 72 hrs by plaque assay; format: functional, cell-based; details: H87, BHK-21, 72 h
dengue virus type 2 [7] = test: Antiviral activity against DENV2 TSVO1 infected in C6/36 cells assessed as reduction in viral titer after 72 hrs by plaque assay; format: functional, cell-based; details: TSVO1, C6/36, 72 h
dengue virus type 4 [8] = test: Antiviral activity against DENV4 H241 infected in BHK21 cells assessed as reduction in viral titer after 72 hrs by plaque assay; format: functional, cell-based; details: H241, BHK-21, 72 h
dengue virus type 2 [9] = test: Antiviral activity against DENV2 New Guinea C infected in human A549 cells assessed as reduction in viral titer after 48 hrs by plaque assay; format: functional, cell-based; details: Thailand/NGS-C/1944, A549, 48 h
dengue virus type 1 [10] = test: Antiviral activity against DENV1 West Pacific infected in BHK21 cells assessed as reduction in viral titer after 48 hrs by plaque assay; format: functional, cell-based; details: BHK-21, 48 h
[11] = Lipophilicity, log D of the compound at pH 7.4; format: physicochemical; details: buffer
[12] = Solubility of the compound at pH 6.8; format: physicochemical; details: buffer
[13] = Intrinsic clearance in human liver microsomes; format: ADME, microsome; details: read-out: CLH

SMILES | EC50 (dengue virus type 4 [1]) | CC50 [2] | EC50 (dengue virus type 3 [3]) | EC50 (dengue virus type 1 [4]) | EC50 (dengue virus type 2 [5]) | EC50 (dengue virus type 3 [6]) | EC50 (dengue virus type 2 [7]) | EC50 (dengue virus type 4 [8]) | EC50 (dengue virus type 2 [9]) | EC50 (dengue virus type 1 [10]) | logD [11] | solubility [12] | microsomal CLint [13]
CSc1cccc(NC(=O)c2cc3ccc(C(F)(F)F)cc3n2CC(C)C(=O)NC2CCCC2)c1 (stereo not drawn) | 2000 nM | 7100 nM | 3900 nM | 5100 nM | 10000 nM |  |  |  |  |  |  |  | 
CSc1cccc(N2C(=O)c3cc4ccc(C(F)(F)F)cc4n3C[C@]2(C)C(=O)NC2CCCC2)c1 | 1500 nM | 20000 nM | 600 nM | 5500 nM | 5100 nM |  |  |  |  |  |  |  | 
O=C(NCC1CC1)C1CN(c2ccccc2)CC(=O)N1c1ccc2ccsc2c1 (stereo not drawn) | 600 nM | > 50000 nM | 200 nM | 6200 nM | 2200 nM |  |  |  |  |  |  |  | 
CSc1cccc(N2C(=O)CN(c3cccnc3)CC2C(=O)NC2CCCC2)c1 (stereo not drawn) | 45000 nM | > 50000 nM | 31000 nM | > 50000 nM | > 50000 nM |  |  |  |  |  |  |  | 
NC(=O)c1cccc(NC(=O)C2CN(c3ccccc3)CC(=O)N2c2ccc3ccsc3c2)c1 (stereo not drawn) | 1900 nM | > 50000 nM | 130 nM | 2000 nM | 1500 nM |  |  |  |  |  |  |  | 
COc1cccc(N2CC(=O)N(c3cccc(SC)c3)C(C(=O)NC3CCCC3)C2)c1 (stereo not drawn) | 2400 nM | > 50000 nM | 1600 nM | 2900 nM | 5400 nM |  |  |  |  |  |  |  | 
O=C(NC1CCCC1)C1CN(c2cccc(C(F)(F)F)c2)CC(=O)N1c1cccc(OC(F)(F)F)c1 (stereo not drawn) | 700 nM | 8000 nM | 400 nM | 1100 nM | 1700 nM |  |  |  |  |  |  |  | 
CSc1cccc(N2C(=O)CN(c3ccc(C(F)(F)F)cc3)CC2C(=O)NC2CCCC2)c1 (stereo not drawn) | 200 nM | 10000 nM | 200 nM | 500 nM | 600 nM |  |  |  |  |  |  |  | 
CSc1cccc(N(C(=O)c2cc3ccc(C(F)(F)F)cc3[nH]2)[C@H](C)C(=O)NC2CCCC2)c1 | 2600 nM | 15000 nM | 2500 nM | 5300 nM | 3600 nM |  |  |  |  |  |  |  | 
O=C(NC1CCCC1)[C@H]1CN(c2ccc(C(F)(F)F)cc2)CC(=O)N1c1ccc2ccsc2c1 | 2600 nM | 10000 nM | 2600 nM | 6900 nM | 5700 nM |  |  |  |  |  |  |  | 
COc1ccc(-c2csc(NC(=O)c3cc(C(C)(C)C)cc(C(C)(C)C)c3)n2)cc1 |  |  |  |  |  | 1000 to 4100 nM | 1000 to 4100 nM | 1000 to 4100 nM | 1000 to 4100 nM | 1000 to 4100 nM |  |  | 
CSc1cccc(N2C(=O)c3cc4ccc(C(F)(F)F)cc4n3CC2(C)C(=O)NC2CCCC2)c1 (stereo not drawn) | 170 nM | > 50000 nM | 50 nM | 80 nM | 200 nM |  |  |  |  |  |  |  | 
O=C(Nc1cccnc1)C1CN(c2ccccc2)CC(=O)N1c1ccc2ccsc2c1 (stereo not drawn) | 1700 nM | > 50000 nM | 500 nM | 5600 nM | 2700 nM |  |  |  |  |  |  |  | 
O=C(NC1CCCC1)C1CN(c2ccc(C(F)(F)F)cc2)CC(=O)N1c1ccc2ccsc2c1 (stereo not drawn) | 100 nM | 10000 nM | 80 nM | 200 nM | 300 nM |  |  |  |  |  |  |  | 
CSc1cccc(N2C(=O)CN(c3ccccc3)CC2(C)C(=O)NC2CCCC2)c1 (stereo not drawn) | 2500 nM | > 50000 nM | 1300 nM | 4000 nM | 11000 nM |  |  |  |  |  |  |  | 
CSc1cccc(N2C(=O)c3cc4ccc(C(F)(F)F)cc4n3C[C@@]2(C)C(=O)NC2CCCC2)c1 | 50 nM | 20000 nM | 10 nM | 40 nM | 90 nM |  |  |  |  |  | > 4.5 | < 4 µM | > 735 µL/min/mg
CSc1cccc(N(CC(=O)NC2CCCC2)C(=O)c2cc3ccc(C(F)(F)F)cc3n2C)c1 | 1500 nM | 6300 nM | 2300 nM | 3100 nM | 3000 nM |  |  |  |  |  |  |  | 

SMILES | EC50 (dengue virus type 4 [1]) | CC50 [2] | EC50 (dengue virus type 3 [3]) | EC50 (dengue virus type 1 [4]) | EC50 (dengue virus type 2 [5]) | EC50 (dengue virus type 3 [6]) | EC50 (dengue virus type 2 [7]) | EC50 (dengue virus type 4 [8]) | EC50 (dengue virus type 2 [9]) | EC50 (dengue virus type 1 [10]) | logD [11] | solubility [12] | microsomal CLint [13]
O=C(NC1CCCC1)C1CN(c2ccc(C(F)(F)F)cc2)CC(=O)N1c1cnc2ccsc2c1 (stereo not drawn) | 400 nM | 30000 nM | 300 nM | 500 nM | 900 nM |  |  |  |  |  |  |  | 
CSc1cccc(N2C(=O)CN(c3cncc(C(F)(F)F)c3)CC2C(=O)NC2CCCC2)c1 (stereo not drawn) | 28000 nM | > 50000 nM | 13000 nM | > 50000 nM | > 50000 nM |  |  |  |  |  |  |  | 
O=C(NC1CCCC1)C1CN(c2ccccc2)CC(=O)N1c1ccc2ccsc2c1 (stereo not drawn) | 900 nM | > 50000 nM | 170 nM | 2400 nM | 1500 nM |  |  |  |  |  |  |  | 
CC(=O)c1cccc(N2C(=O)CN(c3cccc(C(F)(F)F)c3)CC2C(=O)NC2CCCC2)c1 (stereo not drawn) | 6300 nM | 40000 nM | 2200 nM | 7100 nM | 10000 nM |  |  |  |  |  |  |  | 
CSc1cccc(N2C(=O)CN(c3cccc(C(F)(F)F)c3)CC2C(=O)NC2CCCC2)c1 (stereo not drawn) | 600 nM | 20000 nM | 300 nM | 700 nM | 1000 nM |  |  |  |  |  |  | 4 µM (≈ 1.91 µg/mL) | 
O=C(NC1CCCC1)[C@@H]1CN(c2ccc(C(F)(F)F)cc2)CC(=O)N1c1ccc2ccsc2c1 | 30 nM | 20000 nM | 30 nM | 70 nM | 100 nM |  |  |  |  |  | > 4.5 | < 4 µM | 59 µL/min/mg
O=C(NC1CCC1)C1CN(c2ccccc2)CC(=O)N1c1ccc2ccsc2c1 (stereo not drawn) | 200 nM | > 50000 nM | 50 nM | 1800 nM | 1000 nM |  |  |  |  |  |  |  | 
CSc1cncc(N2C(=O)CN(c3cccc(C(F)(F)F)c3)CC2C(=O)NC2CCCC2)c1 (stereo not drawn) | 600 nM | 26000 nM | 200 nM | 400 nM | 1200 nM |  |  |  |  |  |  | 40 µM (≈ 19.1 µg/mL) | 
CSc1cccc(N2C(=O)c3ccc(-c4ccco4)n3CC2(C)C(=O)NC2CCCC2)c1 (stereo not drawn) | 420 nM | > 50000 nM | 90 nM | 320 nM | 500 nM |  |  |  |  |  |  |  | 
CSc1cccc(N2C(=O)CN(c3cc(C(F)(F)F)ccc3C)CC2C(=O)NC2CCCC2)c1 (stereo not drawn) | 5800 nM | 10000 nM | 6500 nM | 6100 nM | 8000 nM |  |  |  |  |  |  |  | 
N#Cc1cccc(NC(=O)C2CN(c3ccccc3)CC(=O)N2c2ccc3ccsc3c2)c1 (stereo not drawn) | 1200 nM | > 50000 nM | 90 nM | 2800 nM | 2000 nM |  |  |  |  |  |  |  | 
CC(F)(F)c1cccc(N2C(=O)CN(c3cccc(C(F)(F)F)c3)CC2C(=O)NC2CCCC2)c1 (stereo not drawn) | 800 nM | 9000 nM | 400 nM | 1900 nM | 2200 nM |  |  |  |  |  |  |  | 
CSc1cccc(N2C(=O)CN(c3ccccc3)CC2C(=O)NC2CCCC2)c1 (stereo not drawn) | 2000 nM | > 50000 nM | 800 nM | 2000 nM | 11000 nM |  |  |  |  |  |  |  | 
CSc1cccc(N(C(=O)c2cc3ccc(C(F)(F)F)cc3[nH]2)[C@@H](C)C(=O)NC2CCCC2)c1 | 1500 nM | 7100 nM | 2000 nM | 2200 nM | 1700 nM |  |  |  |  |  |  |  | 
O=C(NC1CCCC1)C1CN(c2ccc(C(F)(F)F)cc2)CC(=O)N1c1ccc2ccoc2c1 (stereo not drawn) | 500 nM | 20000 nM | 400 nM | 800 nM | 1000 nM |  |  |  |  |  |  |  | 
CSc1cccc(N2C(=O)CN(c3cccc(C#N)c3)CC2C(=O)NC2CCCC2)c1 (stereo not drawn) | 2500 nM | > 50000 nM | 1700 nM | 4100 nM | 7400 nM |  |  |  |  |  |  |  | 
